Test results from PubChem BioAssay (NCI).
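Cultured in 96-well plates, cells were exposed to test compound for 48 hours across five concentrations. GI50 is the concentration that inhibits growth by half. Definition used: TGI = concentration required for complete inhibition of growth.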

What was measured:
Experiment in all cases: DTP human tumour cell line panel, 48 h; in the data active means GI50 below about 0.43 µM; inactive means the rest
[1] = test system: OVCAR-5 ovarian
[2] = test system: NCI-H23 lung
[3] = test system: NCI-H522 lung
[4] = test system: SK-MEL-5 melanoma
[5] = test system: CAKI-1 renal
[6] = test system: SNB-19 CNS
[7] = test system: KM12 colon
[8] = test system: BT-549 breast
[9] = test system: ACHN renal
[10] = test system: NCI-H226 lung
[11] = test system: K-562 leukemia
[12] = test system: 786-0 renal
[13] = test system: SK-MEL-28 melanoma
[14] = test system: SK-OV-3 ovarian
[15] = test system: SW-620 colon
[16] = test system: SF-539 CNS
[17] = test system: RXF 393 renal
[18] = test system: CCRF-CEM leukemia
[19] = test system: DU-145 prostate
[20] = test system: NCI-H460 lung
[21] = test system: MALME-3M melanoma
[22] = test system: HT29 colon
[23] = test system: OVCAR-3 ovarian
[24] = test system: HCC-2998 colon
[25] = test system: SF-295 CNS
[26] = test system: MOLT-4 leukemia
[27] = test system: OVCAR-4 ovarian
[28] = test system: PC-3 prostate
[29] = test system: COLO 205 colon
[30] = test system: UACC-62 melanoma
[31] = test system: OVCAR-8 ovarian
[32] = test system: HOP-92 NSCLC
[33] = test system: HCT-15 colon
[34] = test system: MCF7 breast
[35] = test system: MDA-MB-435
[36] = test system: TK-10 renal
[37] = test system: LOX IMVI melanoma
[38] = test system: U251 CNS
[39] = test system: EKVX NSCLC
[40] = test system: M14 melanoma
[41] = test system: MDA-MB-468 breast
[42] = test system: A498 renal
[43] = test system: HCT-116 colon
[44] = test system: T-47D breast
[45] = test system: IGROV1 ovarian
[46] = test system: HOP-62 NSCLC
[47] = test system: SN12C renal
[48] = test system: SK-MEL-2 melanoma
[49] = test system: RPMI-8226 leukemia
[50] = test system: UO-31 renal
[51] = test system: A549 NSCLC
[52] = test system: SR leukemia
[53] = test system: MDA-MB-231 breast
[54] = test system: SF-268 CNS

Cc1ccccc1Nc1nnc(-c2c[nH]c3ccccc23)o1
7.14 µM: TGI [41]
active: GI50 [35] 0.298 µM
6.34 µM: TGI [3]
16.7 µM: TGI [29]
1.13 µM: TGI [35]
> 100 µM: TGI [1] | TGI [2] | TGI [4] | TGI [5] | TGI [6] | TGI [7] | TGI [8] | TGI [9] | TGI [10] | TGI [11] | TGI [12] | TGI [13] | TGI [14] | TGI [15] | TGI [18] | TGI [19] | TGI [20] | TGI [21] | TGI [23] | TGI [26] | TGI [27] | TGI [28] | TGI [30] | TGI [31] | TGI [32] | TGI [33] | TGI [34] | TGI [36] | TGI [37] | TGI [38] | TGI [39] | TGI [40] | TGI [42] | TGI [43] | TGI [44] | TGI [45] | TGI [46] | TGI [47] | TGI [49] | TGI [50] | TGI [51] | TGI [52] | TGI [53] | TGI [54]
4.4 µM: TGI [48]
6 µM: TGI [25]
15.9 µM: TGI [24]
5.22 µM: TGI [16]
inactive: GI50 [1] 4.13 µM | GI50 [2] 3.38 µM | GI50 [3] 0.85 µM | GI50 [4] 2.32 µM | GI50 [5] 0.897 µM | GI50 [6] 3.36 µM | GI50 [7] 4.6 µM | GI50 [8] 3.7 µM | GI50 [9] 4.32 µM | GI50 [10] 4.44 µM | GI50 [11] 0.531 µM | GI50 [12] 5.58 µM | GI50 [13] 3.91 µM | GI50 [14] 3.52 µM | GI50 [15] 0.882 µM | GI50 [16] 1.9 µM | GI50 [17] 2.25 µM | GI50 [18] 2.09 µM | GI50 [19] 5.47 µM | GI50 [20] 2.88 µM | GI50 [21] 0.869 µM | GI50 [22] 2.13 µM | GI50 [23] 0.889 µM | GI50 [24] 3.3 µM | GI50 [25] 0.567 µM | GI50 [26] 2.55 µM | GI50 [27] 8.06 µM | GI50 [28] 3.41 µM | GI50 [29] 2.22 µM | GI50 [30] 1.13 µM | GI50 [31] 3.44 µM | GI50 [32] 5.66 µM | GI50 [33] 1.78 µM | GI50 [34] 3.02 µM | GI50 [36] 7.65 µM | GI50 [37] 2.96 µM | GI50 [38] 3.18 µM | GI50 [39] 4.48 µM | GI50 [40] 1.32 µM | GI50 [41] 2.21 µM | GI50 [42] > 100 µM | GI50 [43] 5.96 µM | GI50 [44] 12.6 µM | GI50 [45] 2.32 µM | GI50 [46] 3.6 µM | GI50 [47] 3.25 µM | GI50 [48] 1.16 µM | GI50 [49] 3.03 µM | GI50 [50] 1.88 µM | GI50 [51] 6.09 µM | GI50 [52] 0.527 µM | GI50 [53] 3.68 µM | GI50 [54] 5.15 µM
9.91 µM: TGI [17]
11.6 µM: TGI [22]
